Assay results from US20240025906A1 (NEURON23, INC., priority 2022, published 2024).
Like-named read-outs stand apart in the source and are kept apart here.

What was measured:
[1] = test system: JAK1/TYK2 pSTAT5 (Tyr694/699) in THP-1 cell line; test: IFNa-stimulated JAK1/TYK2 pSTAT5 (Tyr694/699) inhibition cellular assay, AlphaLISA; format: cell-based; settings: THP-1 cells, AlphaLISA (Assay B)
Outline: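 pSTAT5 (Tyr694/699) in lysates quantified by AlphaLISA (615 nm) after 30 min IFNa stimulation (100 ng/mL stock) of THP-1 cells. The cells, 2e4 per well in HBSS, had first been exposed 1 h at 37° C. to eight 6-fold compound dilutions, 10000 down to 0.04 nM final. IC50 fitted by 4PL regression, bottom 0, Hill slope −1.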

TYK2 JH2 = target: T1, TYK2 JH2 (Homo sapiens, UniProt P29597); test: TYK2 JH2 binding assay (KINOMEscan KdELECT competitive binding); settings: TYK2 JH2 domain
T1 construct: purchased DiscoverX (KINOMEscan KdELECT service); host or cells: E. coli BL21-derived (T7 phage display) or HEK-293
Outline: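 Competition binding, KdELECT format. Kinase (phage-tagged, E. coli BL21-derived host; or HEK-293, DNA-tagged) + ligand-coated streptavidin beads + cpd, 1 h RT, final DMSO 0.9%. Wash, elute 30 min with 0.5 μM non-biotinylated ligand; qPCR readout. Kd: 11-pt, 3-fold series.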

[2] = DiscoverX KINOMEscan KdELECT (Assay A), read-out: Biochemical TYK2_DiscoverX_JH2_BND_Kd
[3] = Homo sapiens, IFNa-stimulated, read-out: Cellular_THP1_IFNa-pSTATS_TYK2
[4] = KINOMEscan KdELECT (Assay A), read-out: Biochemical TYK2_DiscoverX_JH2_BND_Kd
[5] = Homo sapiens, IFNa-stimulated, read-out: Cellular THP1_IFNa-pSTATS_IC50
[6] = KINOMEscan KdELECT (Assay A), read-out: Biochemical TYK2_JH2_Kd

T1 sequence (P29597 589-875 limits assumed): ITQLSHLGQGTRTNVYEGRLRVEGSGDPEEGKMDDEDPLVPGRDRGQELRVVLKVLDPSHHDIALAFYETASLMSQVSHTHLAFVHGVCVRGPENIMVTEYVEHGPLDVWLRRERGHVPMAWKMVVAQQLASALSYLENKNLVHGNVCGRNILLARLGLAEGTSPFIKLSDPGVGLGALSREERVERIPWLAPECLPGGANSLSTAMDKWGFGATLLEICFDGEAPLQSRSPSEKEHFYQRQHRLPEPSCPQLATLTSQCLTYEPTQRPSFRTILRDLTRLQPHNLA

Kd (TYK2 JH2; [2]) | IC50 [1, 3] | Kd (TYK2 JH2; [4]) | Compound | further results
≤ 100 nM |  |  | CNc1ncc(-c2nc3ccc(N4C[C@@H](C)O[C@@H](C)C4)cn3n2)c2cc(NC(=O)[C@@H]3C[C@@H]3F)ncc12 [Example 554, (1S,2S)—N-(5-(6-((2R,6S)-2,6-dimethylmorpholino)-[1,2,4]triazolo[1,5-a]pyridin-2-yl)-8-(methylamino)-2,7-naphthyridin-3-yl)-2-fluoracyclopropane-1-carboxamide] | IC50 ([1]; IFNa-stimulated, read-out: Cellular_THP1_IFNa-pSTATS_TYK2): ≤ 500 nM
 | ≤ 500 nM | ≤ 100 nM | CNc1ncc(-c2ccc(OCc3ccncc3)cc2)c2cc(NC(=O)C3CC3)ncc12 [Example 867, N-(8-(methylamino)-5-(4-(pyridin-4-ylmethoxy)phenyl)-2,7-naphthyridin-3-yl)cyclopropanecarboxamide] | 
 | ≤ 500 nM | ≤ 100 nM | CNc1ncc(C#Cc2ccc3nc(CO)sc3c2)c2cc(NC(=O)C3CC3)ncc12 [Example 668, N-(5-((2-(hydroxymethyl)benzo[d]thiazol-6-yl)ethynyl)-8-(methylamino)-2,7-naphthyridin-3-yl)cyclopropanecarboxamide] | 
 | ≤ 500 nM | ≤ 100 nM | CNc1ncc(C#Cc2ccc3occc3n2)c2cc(NC(=O)C3CC3)ncc12 [Example 666, N-(5-(furo[3,2-b]pyridin-5-ylethynyl)-8-(methylamino)-2,7-naphthyridin-3-yl)cyclopropanecarboxamide] | 
 |  |  | CNc1ncc(-c2ccn(CC(C)C)n2)c2cc(NC(=O)C3CC3)ncc12 [Example 149, N-(5-(1-isobutyl-1H-pyrazol-3-yl)-8-(methylamino)-2,7-naphthyridin-3-yl)cyclopropanecarboxamide] | IC50 [1, 5]: > 500 nM; Kd (TYK2 JH2; [6]): ≤ 100 nM
 |  |  | CNc1ncc(-c2ccc(S(C)(=O)=O)cc2)c2cc(NC(=O)C3CC3)ncc12 [Example 46, N-(8-(methylamino)-5-(4-(methylsulfonyl)phenyl)-2,7-naphthyridin-3-yl)cyclopropanecarboxamide] | IC50 [1, 5]: > 500 nM; Kd (TYK2 JH2; [6]): ≤ 100 nM
 | ≤ 500 nM | ≤ 100 nM | CNc1ncc(C#Cc2ncccn2)c2cc(NC(=O)C3CC3)ncc12 [Example 950, N-(8-(methylamino)-5-(pyrimidin-2-ylethynyl)-2,7-naphthyridin-3-yl)cyclopropanecarboxamide] | 
 |  | ≤ 100 nM | CNc1ncc(-c2nc3cc(N4CCOCC4)ccc3o2)c2cc(NC(=O)[C@H]3C[C@H]3C(F)F)ncc12 (single isomer, unassigned) [Example 1064] | IC50 ([1]; Homo sapiens, IFNa-stimulated pSTAT5 (Tyr694/699), read-out: Cellular_THP1_IFNa-pSTATS_TYK2): ≤ 500 nM
 | ≤ 500 nM | ≤ 100 nM | CNc1ncc(C#Cc2ccc(N3CCOCC3)cc2F)c2cc(NC(=O)C3CC3)ncc12 [Example 969, N-[5-[2-(2-fluoro-4-morpholino-phenyl)ethynyl]-8-(methylamino)-2,7-naphthyridin-3-yl]cyclopropanecarboxamide] | 
≤ 100 nM | ≤ 500 nM |  | CCO/C=C\c1cccc2nc(-c3cnc(NC)c4cnc(NC(=O)C5CC5)cc34)oc12 [Example 268, (Z)—N-(5-(7-(2-ethoxyvinyl)benzo[d]oxazol-2-yl)-8-(methylamino)-2,7-naphthyridin-3-yl)cyclopropanecarboxamide] | 
 | ≤ 500 nM | ≤ 100 nM | CNc1ncc(C#Cc2ccc3c(c2)ncn3CCCC#N)c2cc(NC(=O)C3CC3)ncc12 [Example 695, N-(5-((1-(3-cyanopropyl)-1H-benzo[d]imidazol-5-yl)ethynyl)-8-(methylamino)-2,7-naphthyridin-3-yl)cyclopropanecarboxamide] | 
≤ 100 nM | ≤ 500 nM |  | CNc1ncc(-c2nc3ccc(N4CCO[C@@H](C)C4)cc3o2)c2cc(NC(=O)C3CC3)ncc12 [Example 275, (S)—N-(8-(methylamino)-5-(6-(2-methylmorpholino)benzo[d]oxazol-2-yl)-2,7-naphthyridin-3-yl)cyclopropanecarboxamide] | 
≤ 100 nM | ≤ 500 nM |  | [2H]C([2H])([2H])Nc1ncc(-c2nc3ccccc3o2)c2cc(NC(=O)C([2H])([2H])[2H])ncc12 [Example 432, N-(5-(benzo[d]oxazol-2-yl)-8-((methyl-d3)amino)-2,7-naphthyridin-3-yl)acetamide-2,2,2-d3] | 
